Like-named read-outs stand apart in the source and are kept apart here.
Legend:
[1] = system: Jurkat (FADD−/−) cells; assay: Inhibition of TNF-induced programmed Jurkat (FADD−/−) cell necrosis (Cell Titer-Glo); assay type: cell-based, human; settings: Homo sapiens, Jurkat, 20 h, read-out: Cellular IC50 (M) Jurkat (FADD−/−)
Outline: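 FADD-knockout Jurkat cells (5×10^5/mL) preincubated with compound, then given TNF (final 10 ng/mL) for 20 h at 37 °C. ATP measured by Cell Titer-Glo luminescence, normalised to untreated DMSO wells as 100% viability; IC50 from duplicate wells.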

[2] = molecular target: T1, human RIP1 (Homo sapiens, UniProt Q13546); assay: Inhibition of ADP-Glo RIP1 kinase activity; assay type: biochemical
T1 construct: made in house; host or cells: Sf-9 insect cells
T1 sequence (Q13546 1-671): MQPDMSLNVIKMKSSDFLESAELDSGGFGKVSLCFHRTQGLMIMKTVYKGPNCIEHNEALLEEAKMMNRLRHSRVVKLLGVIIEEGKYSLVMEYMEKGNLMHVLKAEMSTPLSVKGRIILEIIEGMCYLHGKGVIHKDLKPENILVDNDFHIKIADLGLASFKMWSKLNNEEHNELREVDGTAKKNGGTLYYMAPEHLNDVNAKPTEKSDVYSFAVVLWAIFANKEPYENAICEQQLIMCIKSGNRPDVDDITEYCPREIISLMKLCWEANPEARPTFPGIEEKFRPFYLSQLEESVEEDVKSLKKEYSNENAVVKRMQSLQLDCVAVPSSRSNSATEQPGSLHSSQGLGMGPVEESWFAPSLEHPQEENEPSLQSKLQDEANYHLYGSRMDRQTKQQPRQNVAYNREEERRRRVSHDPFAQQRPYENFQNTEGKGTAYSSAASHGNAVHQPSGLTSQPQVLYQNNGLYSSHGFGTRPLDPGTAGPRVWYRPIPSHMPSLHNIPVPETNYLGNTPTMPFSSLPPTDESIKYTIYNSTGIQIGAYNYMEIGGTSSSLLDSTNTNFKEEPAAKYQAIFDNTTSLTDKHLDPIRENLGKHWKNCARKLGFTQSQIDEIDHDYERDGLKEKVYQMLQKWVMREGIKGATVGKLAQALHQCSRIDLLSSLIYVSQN
Experimental: The human RIP1 gene was transduced into Sf-9 insect cells, and the RIP1 protein was purified by Ni+ affinity chromatography and then by S-200 molecular sieve to remove the protein multimers. The obtained RIP1 protein was stored at −70° C., and the activity of the RIP1 protein in catalyzing autophosphorylation was detected by the ADP-Glo™ Kinase Activity Assay Kit (Promega) and the inhibitory activity of the drug against the RIP1 kinase was determined.
100 nL of the compound was transferred to a 384-well assay plate. Two replicate wells were set for each concentration of each drug.
The RIP1 enzyme solution and ATP solution were formulated in an assay buffer (containing 50 mM HEPES pH 7.5, 30 mM MgCl2, 50 mM NaCl, 1 mM DTT, 0.02% CHAPS, and 0.5 mg/ml BSA). Then, 5 μL of the RIP1 enzyme solution (final concentration 50 nM) was added to the assay plate and incubated at room temperature for 1 h. 5 μL of the ATP solution (final concentration 10 μM) was added to the assay plate, and incubate at room temperature for 4 h. Then 5 μL of ADP-Glo reagent was added to the assay plate, and incubated at room temperature for 60 min. 5 μL of a kinase assay solution was added to the assay plate, and incubated at room temperature for 30 min. After readout on Envision, the inhibition rate in each well was calculated from the full-activity well and the background well, and the Ki of the compound was calculated by GraphPad Prism 7 software (using the Morrision equation to fit the curve and calculate the Ki).

[3] = system: TNF-α induced shock; assay: TNF-α induced shock test in mice; assay type: in vivo, C57BL/6 mice; settings: 10, 20 and 30 mg/kg, given 15 min before TNF-α; body temperature 0-6 h
Experimental: C57BL/6 mice were specially sterilized, and the animals are randomly grouped according to their body weight. 0.15 mg/mL TNF-α was prepared. Each mouse was injected with 200 μL TNF-alpha (30 μg per mouse) through the tail vein. 15 min before TNF-α induction, the drug was administered according to the body weight. At 0 h, 1 h, 2 h, 4 h, and 6 h, the body temperature of the mouse was detected by a small animal thermometer and recorded, and the state of the animal was observed during the test. After 6 h, the mice were euthanized with CO2. The experimental data was plotted by Graph Pad Prism 7, and expressed as mean±standard error (Mean±SEM). The area under the clinical scoring curve was analyzed by one-way ANOVA. p<0.05 is considered to have significant differences as compared to the control group.

[4] = Plasma concentration in mice after a single oral administration; assay type: in vivo; settings: single oral dose 10 mg/kg, 0.25-24 h
Experimental: An oral solution containing Compound RIP1-034 of the present application was freshly prepared with an aqueous solution containing 0.5% MC/0.25% Tween 80 on the day of administration. All animals were fasted overnight before administration, and were allowed to have free food intake 4 hours after administration. Each group included three mice, and each mouse was orally administered a single dose of 10 mg/kg on the day of the experiment. About 30 μL of whole blood was collected from the dorsal vein of the foot at 0.25, 0.5, 1, 2, 4, 6, 8, and 24 hours after administration, transferred to an anticoagulation tube containing heparin sodium and mixed thoroughly by inverting for several times. The collected blood sample was centrifuged at 4° C. and 4000 g for 5 min to collect plasma, and the plasma sample was dispensed into clean polyethylene microcentrifuge tubes, and then stored in a freezer at −75±15° C. until analysis. The actual administration volume was calculated based on the animal's body weight. All samples were analyzed by LC-MS/MS, and the concentration of the drug to be tested in the samples was determined by the standard curve method. The average plasma concentration in a group of three mice at each measurement time point after a single oral administration is shown in FIG. 3.

[5] = TNF 10 ng/mL, intracellular ATP level

SMILES	IC50 [1, 5]	Ki [2]	decrease in body temperature due to systemic inflammatory response caused by TNF-α [3]	plasma concentration after oral administration [4]	IC50 [1]
CN1C(=O)[C@@H](NC(=O)c2nnc(Cc3ccccc3)[nH]2)COc2cc3[nH]nc(Cl)c3cc21 [RIP1-034]	8.9e-10 M	6.35 nM	effectively inhibits the decrease in body temperature	can reach a desirable plasma concentration	–
CN1C(=O)[C@@H](NC(=O)c2ncn(Cc3ccccc3)n2)COc2cc3[nH]nnc3cc21 [RIP1-136]	9.34e-09 M	17.8 nM	–	–	–
CN1C(=O)[C@@H](NC(=O)c2cn(Cc3ccccc3)cn2)COc2cc3[nH]nnc3cc21 [RIP1-137]	7.31e-09 M	13.3 nM	–	–	–
CN1C(=O)[C@@H](NC(=O)c2cn(Cc3ccccc3)nn2)COc2cc3[nH]nnc3cc21 [RIP1-138]	1.68e-08 M	19.8 nM	–	–	–
CN1C(=O)[C@@H](NC(=O)c2nnn(Cc3ccccc3)n2)COc2cc3[nH]nnc3cc21 [RIP1-139]	7.81e-10 M	20.3 nM	–	–	–
CN1C(=O)[C@@H](NC(=O)c2noc(Cc3ccccc3)n2)COc2cc3[nH]nnc3cc21 [RIP1-140]	1.37e-09 M	50.6 nM	–	–	–
CN1C(=O)[C@@H](NC(=O)c2cc(Cc3ccccc3)on2)COc2cc3[nH]nnc3cc21 [RIP1-142]	1.86e-09 M	19.1 nM	–	–	–
COc1ncnc2cc3c(cc12)N(C)C(=O)[C@@H](NC(=O)c1ncn(Cc2ccccc2)n1)CO3 [RIP1-145]	4.61e-10 M	10.5 nM	–	–	–
COc1ncnc2cc3c(cc12)N(C)C(=O)[C@@H](NC(=O)c1n[nH]c(Cc2ccccc2)n1)CO3 [RIP1-146]	1.85e-09 M	13.2 nM	–	–	–
COc1ncnc2cc3c(cc12)N(C)C(=O)[C@@H](NC(=O)c1cn(Cc2ccccc2)cn1)CO3 [RIP1-147]	1.69e-09 M	16.5 nM	–	–	–
CN1C(=O)[C@@H](NC(=O)c2nnc(Cc3ccccc3)o2)COc2cc3[nH]nnc3cc21 [RIP1-153]	–	12.8 nM	–	–	1.52e-09 M

— US20210292340A1, “CELL NECROSIS INHIBITOR, PREPARATION METHOD THEREFOR AND USE THEREOF” (SHANGHAI INSTITUTE OF ORGANIC CHEMISTRY, CHINESE ACADEMY OF …, priority 2018, published 2021)
